Read-outs that look alike come from different tables or passages of the source.
Key:
[1] = system: HIV-1; test: Cytopathic Effect (CPE) Inhibition Assay (XTT dye reduction); format: cell-based
Summary of the method: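 CEM-SS or MT-2 cells infected with HIV-1 RF or NL4–3 (moi 0.025–0.819), 2×10^4 cells/well, incubated six days with half-log compound dilutions. Viability read by XTT formazan at 450 nm; EC50 is the concentration restoring 50% of uninfected-control formazan, CC50 from uninfected treated cells, therapeutic index CC50/EC50.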

[2] = molecular target: T1, HIV-1 protease (Q7S) (Human immunodeficiency virus type 1 group M subtype B, UniProt P04585, Q495S); test: HIV-1 Protease RET Assay; format: biochemical
T1 construct: made in house
Summary of the method: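 Ki values came from a RET assay on refolded Q7S protease (2 nM active dimer) cleaving RE(EDANS)SQNYPIVQK(DABCYL)R at 5 μM, read at ex 340/em 490 nm. Reactions ran 12 min at 37 C in 0.1M sodium acetate pH 4.8, 1M NaCl, 5 mM DTT, 10% DMSO; curves were fit with the Morrison tight-binding equation.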

[3] = Human immunodeficiency virus 1, 144 h, read-out: Ave CPE EC50 (mM)
[4] = Ave. Ki (nM), RET assay, Q7S enzyme, pH 4.8, 37 C
[5] = Ki, table of drawn compounds, unit inferred

SMILES	EC50 [1, 3] [nM]	melting point [°C]	Ki [2, 4] [nM]	EC50 ([1]; Human immunodeficiency virus 1) [nM]	Ki [2, 5] [nM]
Cc1ccccc1CNC(=O)[C@H]1N(C(=O)[C@@H](O)[C@H](Cc2ccccc2)NC(=O)c2ccno2)CSC1(C)C [Example B2, Isoxazole-5-carboxylic acid {(1S,2S)-1-benzyl-3-[(R)-5,5-dimethyl-4-(2-methyl-benzylcarbamoyl)-thiazolidin-3-yl]-2-hydroxy-3-oxo-propyl}-amide]	369	82 to 84	0.78	–	–
Cc1c(O)cccc1C(=O)NC(Cc1ccccc1)C(O)C(=O)N1CSC(C)(C)C1C(=O)NCc1cccc(C(F)(F)F)c1 (stereo not drawn) [Example A4, 3-(2-Hydroxy-3-{[1-(3-hydroxy-2-methyl-phenyl)-methanoyl]-amino}-4-phenyl-butanoyl)-5,5-dimethyl-thiazolidine-4-carboxylic acid 3-trifluoromethyl-benzylamide]	591	108 to 110	4.1	–	–
CC/C=C/CNC(=O)[C@H]1N(C(=O)[C@@H](O)[C@H](Cc2ccccc2)NC(=O)c2cccc(O)c2C)CSC1(C)C [Example A36, (R)-3-((2S,3S)-2-Hydroxy-3-{[1-(3-hydroxy-2-methyl-phenyl)-methanoyl]-amino}-4-phenyl-butanoyl)-5,5-dimethyl-thiazolidine-4-carboxylic acid (E)-pent-2-enylamide]	519	113 to 115	0.59	–	–
Cc1ccccc1CNC(=O)[C@H]1N(C(=O)[C@@H](O)[C@H](Cc2ccccc2)NC(=O)[C@@H]2CCCO2)CSC1(C)C [Example B7, (R)-3-{(2S,3S)-2-Hydroxy-4-phenyl-3-[((S)-1-tetrahydro-furan-2-yl-methanoyl)-amino]-butanoyl}-5,5-dimethyl-thiazolidine-4-carboxylic acid 2-methyl-benzylamide]	680	82 to 84	1.9	–	–
Cc1c(O)cccc1C(=O)N[C@@H](Cc1ccccc1)[C@H](O)C(=O)N1CSC(C)(C)[C@H]1C(=O)NCc1cccc(OC(F)(F)F)c1 [Example A25, (R)-3-((2S,3S)-2-Hydroxy-3-{[1-(3-hydroxy-2-methyl-phenyl)-methanoyl]-amino}-4-phenyl-butanoyl)-5,5-dimethyl-thiazolidine-4-carboxylic acid 3-trifluoromethoxy-benzylamide]	248	102 to 105	5.8	–	–
COc1ccccc1CNC(=O)[C@H]1N(C(=O)C(O)C(Cc2ccccc2)NC(=O)c2cccc(O)c2C)CSC1(C)C (stereo partly drawn) [Example A3, (R)-3-(2-Hydroxy-3-{[1-(3-hydroxy-2-methyl-phenyl)-methanoyl]-amino}-4-phenyl-butanoyl)-5,5-dimethyl-thiazolidine-4-carboxylic acid 2-methoxy-benzylamide]	370	123 to 125	1.7	–	–
Cc1c(O)cccc1C(=O)N[C@@H](Cc1ccccc1)[C@H](O)C(=O)N1CSC(C)(C)[C@H]1C(=O)N[C@H](C)c1ccccc1 [Example A21, (R)-3-((2S,3S)-2-Hydroxy-3-{[1-(3-hydroxy-2-methyl-phenyl)-methanoyl]-amino}-4-phenyl-butanoyl)-5,5-dimethyl-thiazolidine-4-carboxylic acid ((R)-1-phenyl-ethyl)-amide]	717	114 to 115	1.9	–	–
Cc1ccccc1CNC(=O)[C@H]1N(C(=O)[C@@H](O)[C@H](Cc2ccccc2)NC(=O)c2ccsc2)CSC1(C)C [Example B6, (R)-3-{(2S,3S)-2-Hydroxy-4-phenyl-3-[(1-thiophen-3-yl-methanoyl)-amino]-butanoyl}-5,5-dimethyl-thiazolidine-4-carboxylic acid 2-methyl-benzylamide]	589	98 to 100	1.6	–	–
C=CCNC(=O)[C@H]1N(C(=O)[C@@H](O)[C@H](Cc2ccccc2)NC(=O)c2cccc(O)c2C)CSC1(C)C	–	173 to 175	–	–	–
Cc1ccc(F)cc1CNC(=O)[C@H]1N(C(=O)[C@@H](O)[C@H](Cc2ccccc2)NC(=O)c2cccc(O)c2C)COC1(C)C [Example C9, (S)-3-((2S,3S)-2-Hydroxy-3-{[1-(3-hydroxy-2-methyl-phenyl)-methanoyl]-amino}-4-phenyl-butanoyl)-5,5-dimethyl-oxazolidine-4-carboxylic acid 5-fluoro-2-methyl-benzylamide]	233	–	0.34	–	–
COc1ccccc1C(=O)N[C@@H](Cc1ccccc1)[C@H](O)C(=O)N1CSC(C)(C)[C@H]1C(=O)NCc1ccccc1C	–	–	–	1490	2.1
COc1ccc(C(=O)NC(Cc2ccccc2)C(O)C(=O)N2CSC(C)(C)[C@H]2C(=O)NCc2ccccc2C)c(C)c1 (stereo in doubt) [Example B29, 3-[2-Hydroxy-3-(4-methoxy-2-methyl-benzoylamino)-4-phenyl-butyryl]-5,5-dimethyl-thiazolidine-4-carboxylic acid 2-methyl-benzylamide]	1260	–	0.12	–	–
Cc1ccccc1CNC(=O)[C@H]1N(C(=O)[C@@H](O)[C@H](Cc2ccccc2)NC(=O)c2cc(C(C)(C)C)on2)CSC1(C)C	–	–	–	≥ 10000	214
C#CCNC(=O)[C@H]1N(C(=O)[C@@H](O)[C@H](Cc2ccccc2)NC(=O)c2ccc(C)c(O)c2C)CSC1(C)C [Example B21, 3-(2-Hydroxy-3-{[1-(3-hydroxy-2,4-dimethyl-phenyl)-methyanoyl]-amino}-4-phenyl-butznoyl)-5,5-dimethyl-thiazolidine-4-carboxylic acid prop-2-ynylamide]	598	–	4.6	–	–
Cc1ccccc1CNC(=O)[C@H]1N(C(=O)[C@@H](O)[C@H](Cc2ccccc2)NC(=O)c2ccon2)CSC1(C)C [Example B3, Isoxazole-3-carboxylic acid {(1S,2S)-1-benzyl-3-[(R)-5,5-dimethyl-4-(2-methyl-benzylcarbamoyl)-thiazolidin-3-yl]-2-hydroxy-3-oxo-propyl}-amide]	409	–	4	–	–
Cc1c(O)cccc1C(=O)N[C@@H](Cc1ccccc1)[C@H](O)C(=O)N1CSC(C)(C)[C@H]1C(=O)NCc1ccc(N(C)C)cc1 [Example A15, (R)-3-((2S,3S)-2-Hydroxy-3-{[1-(3-hydroxy-2-methyl-phenyl)-methanoyl]-amino}-4-phenyl-butanoyl)-5,5-dimethyl-thiazolidine-4-carboxylic acid 4-dimethylamino-benzylamide]	130	–	10.9	–	–
Cc1ccsc1CNC(=O)[C@H]1N(C(=O)[C@@H](O)[C@H](Cc2ccccc2)NC(=O)c2cccc(O)c2C)CSC1(C)C [Example A8]	36	–	0.23	–	–
Cc1cccc(CNC(=O)[C@H]2N(C(=O)[C@@H](O)[C@H](Cc3ccccc3)NC(=O)c3cccc(O)c3C)CSC2(C)C)c1	–	–	–	76	1.5
Cc1c(O)cccc1C(=O)N[C@@H](Cc1ccccc1)[C@H](O)C(=O)N1CSC(C)(C)[C@H]1C(=O)NCCCl [Example A49, (R)-3-[(2S,3S)-2-Hydroxy-3-(3-hydroxy-2-methyl-benzoylamino)-4-phenyl-butyryl]-5,5-dimethyl-thiazolidine-4-carboxylic acid (2-chloro-ethyl)-amide]	130	–	1.2	–	–
